Measured values from patent publication US8569264B2, “Antibacterial 4,5-substituted aminoglycoside analogs having multiple substituents” (ISIS Pharmaceuticals, Inc., priority 2005, dated 2013).
In brackets after ≈: the same amount, converted by molar mass. Where two headings read alike, the source gives them in different places. Marks after values point to notes of the source that are not given here.

Columns and labels:
[1] = biological target: 18S ribosomal subunit RNA target; assay: Mass spectrometry based binding assay (FTICR), 18S
Description: (§1) In a typical experiment, 10 μL of an aqueous solution containing 100 mM ammonium acetate buffer, 2.5 or 5 μM of each RNA, and 33% isopropyl alcohol (to aid ion desolvation) was prepared with different concentrations of each ligand or ligand mixture Samples were introduced into the electrospray ionization source (negative ionization mode) at 1 μL/min and ions were stored for 1 sec in an RF-only hexapole following desolvation. The abundances were integrated from the respective ions for free RNA and the ligand-RNA complex. The primary (1:1 RNA:ligand) and secondary (1:2 complex, if observed). […] The peak ratios were measured at each concentration, then a plot of complex/free RNA versus concentration of ligand added was fitted to a second (or higher) order binding polynomial to determine the KD.

E. Coli = assay: MIC, E. Coli; type: cell-based
Description: (§2) The MIC assays are carried out in 150 μL volume in duplicate in 96-well clear flat-bottom plates. The bacterial suspension from an overnight culture growth in appropriate medium is added to a solution of test compound in 4% DMSO in water. Final bacterial inoculum is approximately 10^5-10^6 CFU/well. […] Both ampicillin and tetracycline are used as antibiotic-positive controls in each screening assay for S. pyogenes, E. coli imp-, E. coli, S. aureus, E. faecalis, K. pneumoniae and P. vulgaris. Ciprofloxacin is used as an antibiotic positive control in each screening assay for P. aeruginosa.

[2] = system: Staphylococcus aureus (Smith Strain ATCC 13709); assay: Staphylococcus aureus mouse protection assay; type: in vivo, mice; settings: for # Dead mice/Total mice in group: Staph Conc. 10^6, 10% Mucin, the 14th table
Description: Two of the novel aminoglycoside compounds of the invention were examined for their anitbacterial activity against staphylococcus aureus. Mice were fed with autoclaved commercial food pellets and sterile water ad libitum. Animals were inoculated intraperitoneally with 0.5 mL/mouse of the indicated concentration of S. aureus (ATCC 13709) containing 10% mucin. There were 10 mice in each treatment group and compounds were administered subcutaneously one and 3 hour after infection. Compounds 15a (R4═R5═CH3) and 15j (R4═H, R5═(CH2)2C6H5)) were used at 75 mg/kg, 37.5 mg/kg, 18.8 mg/kg, 9.4 mg/kg, 4.7 mg/kg, 2.3 mg/kg, 1.17 mg/kg and 0.5 mg/kg. Amakacin, paromomycin and neomycin were used as the positive controls at concentrations of 2 mg/kg, 1 mg/kg and 0.5 mg/kg.
Test compound was administered as an aqueous buffer solution (phosphate buffered saline (PBS), pH=7.4).

[3] = biological target: 16S ribosomal subunit RNA target; assay: Mass spectrometry based binding assay (FTICR), 16S
Description: as §1, with “[…],” for “2.5 or 5 μM of each RNA,”

[4] = system: E. coli S30 bacterial extract (pBestLuc firefly luciferase reporter); assay: Coupled bacterial transcription/translation assay; type: biochemical; settings: read-out: Trans/Trans IC50
Description: The DNA template, pBestLuc™ (Promega), is a plasmid containing a reporter gene for firefly luciferase fused to a strong tac promoter and ribosome binding site. Messenger RNA from 1 μg pBestLuc is transcribed and translated in E. coli S30 bacterial extract in the presence or absence of test compound. Compounds are tested in a black 96 well microtiter plate with an assay volume of 35 μL. […] The transcription/translation reaction is incubated for 35 minutes at 37° C. followed by detection of functional luciferase with the addition of 30 μL LucLite™ (Packard). Light output is quantitated on a Packard TopCount.

S. Aureus = assay: MIC, S. Aureus; type: cell-based
Description: as §2

[5] = FTICR mass spectrometry, Example 105
[6] = FTICR mass spectrometry, run at 100 nM RNA, Example 105

Row | Compound | Kd [1, 5] | MIC E. Coli. (E. Coli; Example 105) | Kd [3, 6] | IC50 ([4]; Example 105) | MIC S. Aureus (S. Aureus; Example 105) | Kd ([1]; Example 108) | MIC E. Coli. (E. Coli; Example 108) | Kd ([3]; Example 108) | IC50 ([4]; Example 108) | MIC S. Aureus (S. Aureus; Example 108) | further results
1 | NCC1OC(OC2C(CO)OC(OC3C(O)C(N)CC(N)C3OC3OC(CO)C(O)C(O)C3N)C2OCCNCc2cccnc2)C(N)C(O)C1O (centres unmarked) [Compound 9b] | 9.4 µM | 6-12^b uM | 0.9 µM | 0.1 µM | 0.6-1^ uM | – | – | – | – | – | # Dead mice/Total mice in group ([2]; 0.1 mg/kg in PBS pH=7.4): 7/10 (10% Mucin); # Dead mice/Total mice in group ([2]; 0.5 mg/kg in PBS pH=7.4): 3/10 (10% Mucin); # Dead mice/Total mice in group ([2]; 1 mg/kg in PBS pH=7.4): 0/10 (10% Mucin); # Dead mice/Total mice in group ([2]; 2 mg/kg in PBS pH=7.4): 0/10 (10% Mucin); # Dead mice/Total mice in group ([2]; 4.5 mg/kg in PBS pH=7.4): 0/10 (10% Mucin); # Dead mice/Total mice in group ([2]; 9 mg/kg in PBS pH=7.4): 0/10 (10% Mucin); # Dead mice/Total mice in group ([2]; 18 mg/kg in PBS pH=7.4): 0/10 (10% Mucin); # Dead mice/Total mice in group ([2]; 37 mg/kg in PBS pH=7.4): 0/10 (10% Mucin); # Dead mice/Total mice in group ([2]; 75 mg/kg in PBS pH=7.4): 0/10 (10% Mucin); # Dead mice/Total mice in group ([2]; […] in PBS pH=7.4): 6/10 (10% Mucin); prevention of lethal bacterial infections in mice ([2]; result in words, summary of the 14th table): effective at preventing lethal bacterial infections in mice
2 | NCC1OC(OC2C(CO)OC(OC3C(O)C(N)CC(N)C3OC3OC(CO)C(O)C(O)C3N)C2OCCNC23CC4CC(CC(O)(C4)C2)C3)C(N)C(O)C1O (centres unmarked) [Compound 9w] | – | – | – | – | – | – | – | – | – | – | Kd ([1]; Example 106): 1.7 µM; MIC E. Coli. (E. Coli; Example 106): 20 to 40 µM; Kd ([3]; Example 106): 3.2 µM; IC50 ([4]; Example 106): 0.4 µM; MIC S. Aureus (S. Aureus; Example 106): 1 to 3 µM
3 | NCC1OC(OC2C(CO)OC(OC3C(O)C(N)CC(N)C3OC3OC(CO)C(O)C(O)C3N)C2OCCNCCCc2ccccc2)C(N)C(O)C1O (centres unmarked) [Compound 9x] | 6.3 µM | 3 to 5 µM | 1 µM | 0.1 µM | 0.6 to 1.2 µM | – | – | – | – | – | –
4 | NCC1OC(OC2C(CO)OC(OC3C(O)C(N)CC(N)C3OC3OC(CO)C(O)C(O)C3N)C2OCCNCCCCc2ccccc2)C(N)C(O)C1O (centres unmarked) [Compound 9z] | 6.4 µM | 3 to 5 µM | 0.7 µM | 0.1 µM | 0.6 to 1.2 µM | – | – | – | – | – | –
5 | NCC1OC(OC2C(CO)OC(OC3C(O)C(N)CC(N)C3OC3OC(CO)C(O)C(O)C3N)C2OCCN(CCc2ccccc2)C(=O)c2ccccc2)C(N)C(O)C1O (centres unmarked) [Compound 10] | – | – | – | – | – | – | – | – | – | – | Kd ([1]; Example 106): 2.5 µM; MIC E. Coli. (E. Coli; Example 106): 10 to 20 µM; Kd ([3]; Example 106): 3.9 µM; IC50 ([4]; Example 106): 0.4 µM; MIC S. Aureus (S. Aureus; Example 106): 3 to 5 µM
6 | CC(=O)N(CCOC1C(OC2C(O)C(N)CC(N)C2OC2OC(CO)C(O)C(O)C2N)OC(CO)C1OC1OC(CN)C(O)C(O)C1N)CCc1ccccc1 (centres unmarked) [Compound 11] | – | – | – | – | – | – | – | – | – | – | Kd ([1]; Example 106): 6.1 µM; MIC E. Coli. (E. Coli; Example 106): 10 to 20 µM; Kd ([3]; Example 106): 1.5 µM; IC50 ([4]; Example 106): 0.4 µM; MIC S. Aureus (S. Aureus; Example 106): 1 to 3 µM
7 | NC[C@@H]1O[C@H](O[C@H]2[C@@H](OCCO)[C@H](O[C@@H]3[C@@H](O)[C@H](N)C[C@H](N)[C@H]3O[C@H]3O[C@H](CO)[C@@H](O)[C@H](O)[C@H]3N)O[C@@H]2CO)[C@H](N)[C@@H](O)[C@@H]1O [Compound 12a] | 7.3 µM | 12 to 25 µM | 0.9 µM | 0.1 µM | 6 to 12 µM | – | – | – | – | – | –
8 | NC[C@@H]1O[C@H](O[C@H]2[C@@H](OCCCCCc3ccccc3)[C@H](O[C@@H]3[C@@H](O)[C@H](N)C[C@H](N)[C@H]3O[C@H]3O[C@H](CO)[C@@H](O)[C@H](O)[C@H]3N)O[C@@H]2CO)[C@H](N)[C@@H](O)[C@@H]1O [Compound 14c] | 59 µM | – | 40 µM | 0.2 µM | – | – | – | – | – | – | MIC (E. Coli; Escherichia coli, Example 105): 10 to 20 µM (≈ 7.62 to 15.2 µg/mL); MIC E. Coli. (E. Coli; Example 107): 10 to 20 µM; MIC S. Aureus (S. Aureus; Example 107): 3 to 5 µM; MIC (S. Aureus; Staphylococcus aureus, Example 105): 3 to 5 µM (≈ 2.29 to 3.81 µg/mL)
9 | NCCCNCC1OC(OC2C(N)CC(N)C(O)C2OC2OC(CO)C(OC3OC(CN)C(O)C(O)C3N)C2O)C(N)C(O)C1O (centres unmarked) [Compound 15b] | – | – | – | – | – | 1.4 µM | 2.5-5^ uM | 1.6 µM | 0.2 µM | 1.3 to 2.5 µM | –
10 | NCC1OC(OC2C(CO)OC(OC3C(O)C(N)CC(N)C3OC3OC(CN4CCOCC4)C(O)C(O)C3N)C2O)C(N)C(O)C1O (centres unmarked) [Compound 15c] | – | – | – | – | – | 3 µM | 20 to 40 µM | 3.6 µM | 0.3 µM | 10 to 20 µM | –
11 | CC(C)(C)OC(=O)NNCC1OC(OC2C(N)CC(N)C(O)C2OC2OC(CO)C(OC3OC(CN)C(O)C(O)C3N)C2O)C(N)C(O)C1O (centres unmarked) [Compound 15d] | – | – | – | – | – | 1.4 µM | 6 to 12 µM | 0.01 µM | 0.3 µM | 12 to 25 µM | –
12 | CNCC1OC(OC2C(N)CC(N)C(O)C2OC2OC(CO)C(OC3OC(CN)C(O)C(O)C3N)C2O)C(N)C(O)C1O (centres unmarked) [Compound 15e] | – | – | – | – | – | 1.2 µM | 2 to 3 µM | 0.4 µM | 0.2 µM | 2 to 3 µM | –
13 | CC(C)NCC1OC(OC2C(N)CC(N)C(O)C2OC2OC(CO)C(OC3OC(CN)C(O)C(O)C3N)C2O)C(N)C(O)C1O (centres unmarked) [Compound 15h] | – | – | – | – | – | 1.2 µM | 2.5-5^ uM | 1.2 µM | 0.2 µM | 1.3 to 2.5 µM | –
14 | NCC1OC(OC2C(CO)OC(OC3C(O)C(N)CC(N)C3OC3OC(CNN)C(O)C(O)C3N)C2O)C(N)C(O)C1O (centres unmarked) [Compound 15i] | – | – | – | – | – | 1.7 µM | 12 to 25 µM | 0.6 µM | 0.2 µM | 3 to 6 µM | –
15 | NCCOC1C(OC2C(O)C(N)CC(N)C2OC2OC(CO)C(O)C(O)C2N)OC(CO)C1O (centres unmarked) [Compound 30a] | 58 µM | 6 to 12 µM | 19 µM | 0.2 µM | 12 to 25 µM | – | – | – | – | – | –
16 | NCCCNCCOC1C(OC2C(O)C(N)CC(N)C2OC2OC(CO)C(O)C(O)C2N)OC(CO)C1O (centres unmarked) [Compound 30b] | 18 µM | 6 to 12 µM | 9.2 µM | 0.1 µM | 6 to 12 µM | – | – | – | – | – | –
17 | CN(C)CCOC[C@H]1O[C@@H](O[C@@H]2[C@@H](O)[C@H](N)C[C@H](N)[C@H]2O[C@H]2O[C@H](CO)[C@@H](O)[C@H](O)[C@H]2N)[C@H](O)[C@@H]1O[C@H]1O[C@@H](CN)[C@@H](O)[C@H](O)[C@H]1N [Compound 54, 5″-O-(2-N,N-dimethylaminoethyl) paromomycin] | 68 µM | 6 to 12 µM | 4.1 µM | 0.3 µM | 25 to 50 µM | – | – | – | – | – | –
